Patent US7632829B2, “Diazepan derivatives” (Hoffmann-La Roche Inc., priority 2006, dated 2009)

Target: T1, human chemokine receptor 2 isoform B (Homo sapiens, UniProt P41597)
T1 construct: host or cells: CHOK1-CCR2B-A5 (CHO-K1)
T1 sequence (P41597 1-360 isoform P41597-2): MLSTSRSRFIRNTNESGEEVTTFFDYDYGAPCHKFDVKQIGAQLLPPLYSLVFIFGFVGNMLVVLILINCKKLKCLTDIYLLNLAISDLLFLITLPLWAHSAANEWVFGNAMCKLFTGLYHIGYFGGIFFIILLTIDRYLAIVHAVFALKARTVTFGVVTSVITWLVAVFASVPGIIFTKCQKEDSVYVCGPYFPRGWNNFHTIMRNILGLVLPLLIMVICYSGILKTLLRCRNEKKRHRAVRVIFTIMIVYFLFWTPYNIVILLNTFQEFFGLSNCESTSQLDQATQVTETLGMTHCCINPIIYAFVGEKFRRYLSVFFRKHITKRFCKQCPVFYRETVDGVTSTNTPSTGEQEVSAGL
Experiment: Calcium mobilization assay (FLIPR, CHOK1-CCR2B-A5 cells, 20 nM MCP-1)
Type: cell-based
Conditions: Ca mobilisation assay, CCR2, antagonist activity vs 20 nM MCP-1
Procedure, shortened: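 Antagonism read as IC50 against 20 nM MCP-1-evoked calcium rise (peak minus baseline Fluo-4 signal, FLIPR) in CCR2B-overexpressing CHO-K1 cells. Compounds were preincubated 20-30 min at 30 °C, with agonist activity recorded for 80 s on addition.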

Structure (SMILES) | IC50 [nM]
COCC1CCCN(CCCCN2CCN(C(=O)/C=C/c3ccc(F)c(Cl)c3)CCC2=O)C1 (racemic) [Example 392] | 54
O=C(/C=C/c1ccc(F)c(Cl)c1)N1CCC(=O)N(CCCCN2CCC(O)C2)CC1 (racemic) [Example 393] | 878
O=C(/C=C/c1ccc(F)c(Cl)c1)N1CCC(=O)N(CCCCN2CC[C@@H](O)[C@H](F)C2)CC1 (racemic) [Example 394] | 551
COC1CCCN(CCCCN2CCN(C(=O)/C=C/c3ccc(F)c(Cl)c3)CCC2=O)C1 (racemic) [Example 395] | 996
CC1CN(CCCCN2CCN(C(=O)/C=C/c3ccc(F)c(Cl)c3)CCC2=O)CCC1O (racemic) [Example 400] | 264
CC1(CO)CCCCN1CCCCN1CCN(C(=O)/C=C/c2ccc(F)c(Cl)c2)CCC1=O (racemic) [Example 407] | 264
CC1CCC(O)CN1CCCCN1CCN(C(=O)/C=C/c2ccc(Cl)c(F)c2)CCC1=O (racemic) [Example 413] | 77
O=C(/C=C/c1ccc(Cl)c(F)c1)N1CCC(=O)N(CCCCN2CC(O)CCC2CO)CC1 (racemic) [Example 414] | 65
COCC1CCC(O)CN1CCCCN1CCN(C(=O)/C=C/c2ccc(Cl)c(F)c2)CCC1=O (racemic) [Example 418] | 1470
O=C(/C=C/c1ccc(Cl)c(F)c1)N1CCC(=O)N(CCCCN2CCC[C@H](O)[C@@H]2CO)CC1 (racemic) [Example 419] | 250
CC1(C)CCN(CCCCN2CCN(C(=O)/C=C/c3ccc(Cl)c(F)c3)CCC2=O)CC1O (racemic) [Example 420] | 52
O=C(/C=C/c1ccc(Cl)c(Cl)c1)N1CCC(=O)N(CCCCN2CCCC(CO)C2)CC1 (racemic) [Example 425] | 89
O=C(/C=C/c1ccc(Cl)c(Cl)c1)N1CCC(=O)N(CCCCN2CCCCC2CO)CC1 (racemic) [Example 427, (rac)-1-[(E)-3-(3,4-Dichloro-phenyl)-acryloy]-4-[4-(2-hydroxymethyl-piperidin-1-yl)-butyl]-[1,4]diazepan-5-one] | 259
O=C(/C=C/c1ccc(Cl)c(Cl)c1)N1CCC(=O)N(CCCCN2CC[C@@H](O)[C@@H](F)C2)CC1 (racemic) [Example 430, (rac,cis)-1-[(E)-3-(3,4-Dichloro-phenyl)-acryloyl]-4-[4-(3-fluoro-4-hydroxy-piperidin-1-yl)-butyl]-[1,4]diazepan-5-one] | 352
CC1(O)CCCN(CCCCN2CCN(C(=O)/C=C/c3ccc(Cl)c(Cl)c3)CCC2=O)C1 (racemic) [Example 431] | 448
COCC1CCCN(CCCCN2CCN(C(=O)/C=C/c3ccc(Cl)c(Cl)c3)CCC2=O)C1 (racemic) [Example 432] | 16
O=C(/C=C/c1ccc(Cl)c(Cl)c1)N1CCC(=O)N(CCCCN2CCC(O)C2)CC1 (racemic) [Example 433] | 244
COC1CCCN(CCCCN2CCN(C(=O)/C=C/c3ccc(Cl)c(Cl)c3)CCC2=O)C1 (racemic) [Example 435] | 281

Structure (SMILES) | IC50 [nM]
CC1CN(CCCCN2CCN(C(=O)/C=C/c3ccc(Cl)c(Cl)c3)CCC2=O)CCC1O (racemic) [Example 440] | 103
CC1(CO)CCCN(CCCCN2CCN(C(=O)/C=C/c3ccc(Cl)c(Cl)c3)CCC2=O)C1 (racemic) [Example 445] | 354
COCC1(C)CCCN(CCCCN2CCN(C(=O)/C=C/c3ccc(Cl)c(Cl)c3)CCC2=O)C1 (racemic) [Example 446] | 626
CC1(CO)CCCCN1CCCCN1CCN(C(=O)/C=C/c2ccc(Cl)c(Cl)c2)CCC1=O (racemic) [Example 447] | 92
CC1CCN(CCCCN2CCN(C(=O)/C=C/c3ccc(Cl)c(Cl)c3)CCC2=O)CC1O (racemic) [Example 448] | 181
O=C(/C=C/c1ccc(Cl)c(Cl)c1)N1CCC(=O)N(CCCCN2CCC(O)C(CO)C2)CC1 (racemic) [Example 450, (rac)-1-[(E)-3-(3,4-Dichloro-phenyl)-acryloyl]-4-[4-(4-hydroxy-3-hydroxymethyl-piperidin-1-yl)-butyl]-[1,4]diazepan-5-one] | 243
COCC1CN(CCCCN2CCN(C(=O)/C=C/c3ccc(Cl)c(Cl)c3)CCC2=O)CCC1O (racemic) [Example 451] | 682
C[C@@H]1CCN(CCCCN2CCN(C(=O)/C=C/c3ccc(Cl)c(Cl)c3)CCC2=O)C[C@H]1O (racemic) [Example 454, (rac)-1-[(E)-3-(3,4-Dichloro-phenyl)-acryloyl]-4-[4-(trans-3-hydroxy-4-methyl-piperidin-1-yl)-butyl]-[1,4]diazepan-5-one] | 230
C[C@@H]1CN(CCCCN2CCN(C(=O)/C=C/c3ccc(Cl)c(Cl)c3)CCC2=O)CC[C@H]1O (racemic) [Example 455, (rac)-1-[(E)-3-(3,4-Dichloro-phenyl)-acryloyl]-4-[4-(trans-4-hydroxy-3-methyl-piperidin-1-yl)-butyl]-[1,4]diazepan-5-one] | 106
O=C(/C=C/c1ccc(Cl)c(Cl)c1)N1CCC(=O)N(CCCCN2CCC3(CC3)C(O)C2)CC1 (racemic) [Example 456] | 16
O=C(/C=C/c1ccc(Cl)c(Cl)c1)N1CCC(=O)N(CCCCN2CCC(O)C3(CC3)C2)CC1 (racemic) [Example 457] | 283
C[C@@H]1CN(CCCCN2CCN(C(=O)/C=C/c3ccc(Cl)c(Cl)c3)CCC2=O)CC[C@@H]1O (racemic) [Example 458] | 148
CC1(CO)CCN(CCCCN2CCN(C(=O)/C=C/c3ccc(Cl)c(Cl)c3)CCC2=O)CC1 (racemic) [Example 459] | 267
CC1(CO)CCCN1CCCCN1CCN(C(=O)/C=C/c2ccc(Cl)c(Cl)c2)CCC1=O (racemic) [Example 462] | 41
CC1(C)CN(CCCCN2CCN(C(=O)/C=C/c3ccc(Cl)c(Cl)c3)CCC2=O)CCC1O (racemic) [Example 464] | 226
CC(=O)NC1CCCN(CCCCN2CCN(C(=O)/C=C/c3ccc(Cl)c(Cl)c3)CCC2=O)C1 (racemic) [Example 466] | 389
O=C(/C=C/c1ccc(Cl)c(Cl)c1)N1CCC(=O)N(CC(O)CN2CC[C@H](O)[C@H](F)C2)CC1 (relative stereo) [Example 287] | 848
C[C@H]1[C@H](O)CCCN1CC(O)CCN1CCN(C(=O)/C=C/c2ccc(Cl)c(Cl)c2)CCC1=O (relative stereo) [Example 362] | 504

The next lines start with the values.

IC50 [nM] | Structure (SMILES)
1160 | O=C(/C=C/c1ccc(Cl)c(Cl)c1)N1CCC(=O)N(CCCCN2CCC3(CCCO3)CC2)CC1 (racemic) [Example 467]
347 | O=C(/C=C/c1ccc(Cl)c(Cl)c1)N1CCC(=O)N(CCCCN2CC[C@H](CO)[C@H](O)C2)CC1 (racemic) [Example 468]
61 | COC[C@H]1CCN(CCCCN2CCN(C(=O)/C=C/c3ccc(Cl)c(Cl)c3)CCC2=O)C[C@H]1O (racemic) [Example 469]
85 | COC[C@H]1CCN(CCCCN2CCN(C(=O)/C=C/c3ccc(Cl)c(Cl)c3)CCC2=O)C[C@H]1OC (racemic) [Example 470]
43 | O=C(/C=C/c1ccc(Cl)c(Cl)c1)N1CCC(=O)N(CCCCN2CC[C@@H](CO)[C@H](O)C2)CC1 (racemic) [Example 471]
418 | CO[C@@H]1CN(CCCCN2CCN(C(=O)/C=C/c3ccc(Cl)c(Cl)c3)CCC2=O)CC[C@@H]1CO (racemic) [Example 472]
20 | CC1CCC(O)CN1CCCCN1CCN(C(=O)/C=C/c2ccc(Cl)c(Cl)c2)CCC1=O (racemic) [Example 475]
18 | O=C(/C=C/c1ccc(Cl)c(Cl)c1)N1CCC(=O)N(CCCCN2CC(O)CCC2CO)CC1 (racemic) [Example 476]
313 | COC1CCC(CO)N(CCCCN2CCN(C(=O)/C=C/c3ccc(Cl)c(Cl)c3)CCC2=O)C1 (racemic) [Example 477]
998 | COCC1CC(OC)C(O)CN1CCCCN1CCN(C(=O)/C=C/c2ccc(Cl)c(Cl)c2)CCC1=O (racemic) [Example 478]
232 | COCC1CCC(O)CN1CCCCN1CCN(C(=O)/C=C/c2ccc(Cl)c(Cl)c2)CCC1=O (racemic) [Example 479]
53 | O=C(/C=C/c1ccc(Cl)c(Cl)c1)N1CCC(=O)N(CCCCN2CCC[C@H](O)[C@@H]2CO)CC1 (racemic) [Example 480]
9 | CC1(C)CCN(CCCCN2CCN(C(=O)/C=C/c3ccc(Cl)c(Cl)c3)CCC2=O)CC1O (racemic) [Example 481]
75 | NC(=O)COC1CCC(CO)N(CCCCN2CCN(C(=O)/C=C/c3ccc(Cl)c(Cl)c3)CCC2=O)C1 (racemic) [Example 485]
205 | COCC1C(O)CCCN1CCCCN1CCN(C(=O)/C=C/c2ccc(Cl)c(Cl)c2)CCC1=O (racemic) [Example 486]
14 | CC1CCC(O)CN1CCCCN1CCN(C(=O)/C=C/c2ccc(Cl)c(Cl)c2)CCC1=O (racemic) [Example 487]
618 | COCC1C(O)CCC(C)N1CCCCN1CCN(C(=O)C=Cc2ccc(Cl)c(Cl)c2)CCC1=O (racemic) [Example 488, (rac,cis)-1-[(E)-3-(3,4-Dichloro-phenyl)-acryloyl]-4-[4-(3-hydroxy-2-methoxymethyl-6-methyl-piperidin-1-yl)-butyl]-[1,4]diazepan-5-one]
84 | CC1(C)CCN(CC(O)CN2CCN(C(=O)/C=C/c3ccc(F)c(F)c3)CCC2=O)CC1O (racemic) [Example 499]
316 | C[C@@H]1C[C@H](O)CN(CC(O)CN2CCN(C(=O)/C=C/c3ccc(F)c(F)c3)CCC2=O)C1 (mixture of isomers) [Example 504]
